Test results from patent US10913736B2 (UNIVERSITY OF WASHINGTON, priority 2014, dated 2021).
Like-named read-outs stand apart in the source and are kept apart here.

Experiments:
MetRS (T. brucei) = MetRS (T. brucei) (Trypanosoma brucei brucei, UniProt Q38C91); test: MetRS (T. brucei) ATP depletion assay using Kinase-Glo; assay type: biochemical
T. brucei = test: Growth inhibition assay of T. brucei cell cultures (Alamar Blue, 48 h); assay type: cell-based
T. cruzi = T. cruzi growth inhibition EC50; assay type: cell-based; settings: Trypanosoma cruzi; read-out: C) T. cruzi EC50
MetRS (S. aureus) = MetRS (S. aureus) (Staphylococcus aureus, UniProt Q5HII6); test: biochemical; settings: ATP depletion, Kinase-Glo; read-out: H) MetRS (S. aureus) ATP depletion assay using Kinase-Glo with modified cpd dilution method, IC50
Chain of MetRS (S. aureus) (Q5HII6 whole entry): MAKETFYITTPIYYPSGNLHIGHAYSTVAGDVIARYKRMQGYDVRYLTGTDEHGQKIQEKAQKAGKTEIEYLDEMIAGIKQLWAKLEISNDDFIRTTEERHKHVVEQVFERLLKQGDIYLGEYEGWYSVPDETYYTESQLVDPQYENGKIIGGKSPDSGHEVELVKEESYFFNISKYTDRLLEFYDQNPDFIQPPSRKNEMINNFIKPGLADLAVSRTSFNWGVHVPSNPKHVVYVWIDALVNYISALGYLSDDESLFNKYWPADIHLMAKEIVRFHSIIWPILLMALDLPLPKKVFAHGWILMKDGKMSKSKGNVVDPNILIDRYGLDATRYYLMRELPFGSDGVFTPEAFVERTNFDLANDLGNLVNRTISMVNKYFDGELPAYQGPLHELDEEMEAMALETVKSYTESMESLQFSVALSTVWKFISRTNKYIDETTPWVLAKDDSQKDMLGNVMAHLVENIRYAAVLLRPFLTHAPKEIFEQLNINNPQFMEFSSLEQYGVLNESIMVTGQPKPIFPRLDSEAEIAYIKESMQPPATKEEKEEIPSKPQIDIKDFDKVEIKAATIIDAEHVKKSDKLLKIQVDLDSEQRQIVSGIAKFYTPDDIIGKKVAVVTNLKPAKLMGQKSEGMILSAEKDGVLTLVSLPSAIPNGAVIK

S. aureus (ATCC 29213) = S. aureus (ATCC 29213) MIC/EC50; assay type: cell-based; settings: Staphylococcus aureus, ATCC29213; S. aureus ATCC 29213; read-out: I) S. aureus (ATCC 29213) MIC/EC50, MIC
[1] = test system: S. aureus MRSA (ATCC 43300); test: S. aureus MRSA (ATCC 43300) MIC/EC50; assay type: cell-based; settings: Staphylococcus aureus; S. aureus MRSA ATCC 43300; read-out: J) S. aureus MRSA (ATCC 43300) MIC/EC50, MIC
L. amaz = L. amaz growth inhibition EC50; assay type: cell-based; settings: read-out: F) L. amaz EC50
MetRS (Giardia) = MetRS (Giardia) (Giardia intestinalis, UniProt A8BY75); test: biochemical; settings: read-out: D) MetRS (Giardia) aminoacylation assay with modified cpd dilution method IC50
Chain of MetRS (Giardia) (A8BY75 entry or part of it): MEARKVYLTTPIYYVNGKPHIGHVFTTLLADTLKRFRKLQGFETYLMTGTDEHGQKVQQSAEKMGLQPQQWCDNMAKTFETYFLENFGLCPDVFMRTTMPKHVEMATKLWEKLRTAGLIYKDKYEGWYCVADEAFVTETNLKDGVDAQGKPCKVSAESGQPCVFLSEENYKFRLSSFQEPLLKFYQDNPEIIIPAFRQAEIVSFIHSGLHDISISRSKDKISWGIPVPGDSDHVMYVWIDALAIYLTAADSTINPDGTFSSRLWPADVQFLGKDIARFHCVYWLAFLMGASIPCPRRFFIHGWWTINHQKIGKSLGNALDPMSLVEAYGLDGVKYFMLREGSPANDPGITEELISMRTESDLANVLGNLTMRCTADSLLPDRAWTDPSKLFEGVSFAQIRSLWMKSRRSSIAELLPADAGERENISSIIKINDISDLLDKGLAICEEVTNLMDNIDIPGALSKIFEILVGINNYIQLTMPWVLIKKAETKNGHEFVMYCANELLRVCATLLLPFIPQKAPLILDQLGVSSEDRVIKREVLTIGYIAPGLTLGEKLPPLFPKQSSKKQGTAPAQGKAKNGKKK

[2] = test system: Giardia intestinalis (ATCC 50580); test: Giardia intestinalis (ATCC 50580) growth inhibition EC50; assay type: cell-based; settings: Giardia duodenalis, ATCC50580; read-out: E) Giardia intestinalis (ATCC 50580) EC50
E. faecalis (ATCC 29212) = E. faecalis (ATCC 29212) MIC/EC50; assay type: cell-based
E. faecium (ATCC 51559) = E. faecium (ATCC 51559) MIC/EC50; assay type: cell-based
[3] = Trypanosoma brucei; read-out: B) T. brucei EC50

Chain of MetRS (T. brucei) (Q38C91 entry or part of it): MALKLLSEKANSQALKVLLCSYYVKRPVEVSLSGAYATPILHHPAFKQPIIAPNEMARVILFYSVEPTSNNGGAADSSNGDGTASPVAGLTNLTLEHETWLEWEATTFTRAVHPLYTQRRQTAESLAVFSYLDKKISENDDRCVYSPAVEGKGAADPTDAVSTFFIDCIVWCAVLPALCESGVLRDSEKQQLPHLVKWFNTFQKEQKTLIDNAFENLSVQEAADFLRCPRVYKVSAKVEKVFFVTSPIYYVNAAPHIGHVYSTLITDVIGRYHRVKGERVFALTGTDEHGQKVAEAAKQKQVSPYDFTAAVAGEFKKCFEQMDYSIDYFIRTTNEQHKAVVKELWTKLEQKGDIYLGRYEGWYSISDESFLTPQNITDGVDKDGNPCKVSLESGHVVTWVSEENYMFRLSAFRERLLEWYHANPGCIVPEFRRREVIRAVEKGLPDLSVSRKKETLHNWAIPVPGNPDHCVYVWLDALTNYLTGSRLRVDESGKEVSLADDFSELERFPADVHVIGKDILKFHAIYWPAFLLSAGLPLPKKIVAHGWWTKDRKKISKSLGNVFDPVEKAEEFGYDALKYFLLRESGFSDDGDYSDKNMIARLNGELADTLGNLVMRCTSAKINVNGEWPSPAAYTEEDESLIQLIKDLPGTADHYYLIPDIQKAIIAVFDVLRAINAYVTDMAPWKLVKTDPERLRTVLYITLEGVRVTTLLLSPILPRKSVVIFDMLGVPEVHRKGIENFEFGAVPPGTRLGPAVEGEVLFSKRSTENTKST

| SMILES | IC50 (MetRS (T. brucei)) [nM] | EC50 (T. brucei; [3]) [nM] | EC50 (T. cruzi) [nM] | IC50 (MetRS (S. aureus)) [nM] | MIC (S. aureus (ATCC 29213)) [µg/mL] | MIC [1] [µg/mL] | EC50 (L. amaz) [nM] | IC50 (MetRS (Giardia)) [nM] | EC50 [2] [nM] | K) E. faecalis (ATCC 29212) MIC/EC50, MIC (ug/ml) (E. faecalis (ATCC 29212)) | L) E. faecium (ATCC 51559) MIC/EC50, MIC (E. faecium (ATCC 51559)) [µg/mL] | EC50 (T. brucei; read-out: B) T. brucei EC50) [nM] |
| --- | --- | --- | --- | --- | --- | --- | --- | --- | --- | --- | --- | --- |
| N[C@@H](CC(=O)NCc1nc2ccccc2[nH]1)Cc1ccc(Cl)cc1Cl [Compound 1720, (R)—N-((1H-benzo[d]imidazol-2-yl)methyl)-3-amino-4-(2,4-dichlorophenyl)butanamide] | 70 | 848 | 3700 | 181 | > 10 | > 10 |  |  |  |  |  |  |
| Clc1cc(Cl)cc(CN[C@H]2CCCN(c3nc4nc(Cl)ccc4[nH]3)C2)c1 [Compound 1856, (S)-1-(5-chloro-1H-imidazo[4,5-b]pyridin-2-yl)-N-(3,5-dichlorobenzyl) piperidin-3-amine] | 19 | 38.7 | 1470 | 365 |  |  | 4350 |  |  |  |  |  |
| O=C(Cc1cc(Cl)cc(Cl)c1)N1CCCC(c2nc3cc(Cl)ccc3[nH]2)C1 (centres unmarked) [Compound 1734, 1-(3-(5-chloro-1H-benzo[d]imidazol-2-yl)piperidin-1-yl)-2-(3,5-dichlorophenyl) ethanone] | 60 | 1400 | 4910 | 2440 | > 10 | > 10 |  |  |  |  |  |  |
| O=C(CCOc1ccc(Cl)cc1Cl)NCc1nc2ccccc2[nH]1 [Compound 1683, N-(1H-1,3-benzodiazol-2-ylmethyl)-3-(2,4-dichlorophenoxy)propanamide] | 74 | 8830 | > 10000 |  |  |  | > 1000 | > 1000 | > 2000 |  |  |  |
| Fc1ccc2nc(NCCCN[C@H]3CCOc4c(Cl)cc(Cl)cc43)[nH]c2n1 [Compound 1711, (4S)-6,8-dichloro-N-[3-({5-fluoro-3H-imidazo[4,5-b]pyridin-2-yl}amino)propyl]-3,4-dihydro-2H-1-benzopyran-4-amine] | 752 | 2820 |  | 368 |  |  |  |  |  | >10, >10 ug/ml | >10 |  |
| Clc1cc(Cl)cc(Cn2cc(Cc3nc4ccccc4[nH]3)nn2)c1 [Compound 1753, 2-({1-[(3,5-dichlorophenyl)methyl]-1H-1,2,3-triazol-4-yl}methyl)-1H-1,3-benzodiazole] | 73 | 2330 | > 5000 | 1100 |  |  |  |  |  |  | >10 |  |
| O=C(Cc1cc(Cl)cc(Cl)c1)N1CCC[C@H](c2nc3cc(Cl)ccc3[nH]2)C1 [Compound 1758, (S)-1-(3-(5-chloro-1H-benzo[d]imidazol-2-yl)piperidin-1-yl)-2-(3,5-dichlorophenyl)ethanone] | 31 | 4650 |  | 1040 | > 10 | > 10 |  |  |  |  |  |  |
| O=C(NCc1nc2ccccc2[nH]1)OCCc1ccc(Cl)cc1Cl [Compound 1701, 2-(2,4-dichlorophenyl)ethyl N-(1H-1,3-benzodiazol-2-ylmethyl)carbamate] | 5 | 1290 | 8750 | 67 | > 10 | > 10 |  |  |  |  |  |  |
| CN(CCN[C@@H]1CCNc2c(Cl)cc(Cl)cc21)c1nc2nc(F)ccc2[nH]1 [Compound 1919, (R)—N1-(6,8-dichloro-1,2,3,4-tetrahydroquinolin-4-yl)-N2-(5-fluoro-1H-imidazo[4,5-b]pyridin-2-yl)-N2-methylethane-1,2-diamine] | 15 | 6.31 | 88.8 | 328 |  |  | 1640 |  |  |  |  | 9.45 |
| O=C(/C=C/Oc1ccc(Cl)cc1Cl)NCc1nc2ccccc2[nH]1 [Compound 1729, (2E)-N-(1H-1,3-benzodiazol-2-ylmethyl)-3-(2,4-dichlorophenoxy)prop-2-enamide] | 17 | 119 | > 5000 | 27 |  |  | > 1000 |  |  |  | >10 |  |
| CN(CCNCc1cc(Cl)cc(Cl)c1)c1nc2ccc(Cl)nc2[nH]1 [Compound 1893, N-(2-(3,5-dichlorobenzylamino)ethyl)-5-chloro-N-methyl-1H-imidazo[4,5-b]pyridin-2-amine] | 8 | 14.8 | 340 | 296 |  |  | 3780 |  |  |  |  | 28.2 |
